Read-outs that look alike come from different tables or passages of the source.
Assay: In vitro release of conjugates in phosphate buffer (Method E)
Assay type: physicochemical
Description: In vitro release for conjugates in buffer: In separate containers Compound 2a (˜0.1-0.5 mg/mL), Compound 3a (˜0.5-5 mg/mL) and Compound 4a (˜0.2-1 mg/mL) were dissolved in 100 mM phosphate buffer pH 7.5 (or other pH values as indicated). The conjugates were filtered through a 0.2 micron filter into a HPLC vial. The HPLC sample vials were incubated at 37° C. and injected at various intervals on a HPLC system with C18 silica column applying an acetonitrile gradient with 0.1% TFA; retention times observed were sunitinib ˜3.5 minutes and conjugates either ˜2.2 minutes for Compound 2a or ˜10.8 minutes for Compounds 3a or 4a. Release data for the t1/2 values were obtained from the slope of the linear fit to a plot of ln(A(conjugate)/A0(conjugate)) vs. time, according to the first order rate law.
The half-lives observed for several sunitinib conjugates of the invention were determined in buffer and plasma according to the descriptions in “Method E” provided in the Experimental.

For `CCN(CC)CCN(C(=O)OCC(O)CO)C(=O)c1c(C)[nH]c(/C=C2\C(=O)Nc3ccc(F)cc32)c1C` (centres unmarked) [Compound 1e, (Z)-2,3-dihydroxypropyl 2-(diethylamino)ethyl(5-((5-fluoro-2-oxoindolin-3-ylidene)methyl)-2,4-dimethyl-1H-pyrrole-3-carbonyl)carbamate], the half-life (100 mM phosphate buffer pH 7.5, 37° C., read-out: Release half-life, Phosphate pH 7.5) was ~3 min and the half-life (phosphate buffer pH 6.8, 37° C., read-out: Release half-life, Phosphate pH 6.8) was ~10 min.
